Experimental data published in PubChem BioAssay AID248 (DTP/NCI, 2004).
Values joined by “and” are separate entries in the source; they are usually repeats but may differ in a detail not shown here. Identical values can stand only once. Inconclusive results and toxic doses are left out. No stated cut-off is given here; in the data, active means T/C of 150% or more; inactive means T/C below 125%.

System: L1210 leukemia ip in BDF1 mice, survival T/C
Test: NCI In Vivo Anticancer Drug Screen. Data for tumor model L1210 Leukemia (intraperitoneal) in B6D2F1 (BDF1) mice
Details: endpoint: mean survival time, higher = longer survival
How it was run: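 Value reflects the ratio of survival in compound-treated mice to survival in vehicle-treated controls, with both groups carrying the same transplanted tumor.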

[1] = dose: 100.0 mg/kg/injection, schedule: Q01DX001 (ip), vehicle: saline with Tween-80
[2] = dose: 100.0 mg/kg/injection, schedule: Q04DX002 (ip), vehicle: saline with Tween-80
[3] = dose: 100.0 mg/kg/injection, schedule: Q04DX003 (ip), vehicle: saline with Tween-80
[4] = dose: 200.0 mg/kg/injection, schedule: Q01DX001 (ip), vehicle: saline with Tween-80
[5] = dose: 200.0 mg/kg/injection, schedule: Q04DX002 (ip), vehicle: saline with Tween-80
[6] = dose: 200.0 mg/kg/injection, schedule: Q04DX003 (ip), vehicle: saline with Tween-80
[7] = dose: 400.0 mg/kg/injection, schedule: Q01DX001 (ip), vehicle: saline with Tween-80
[8] = dose: 400.0 mg/kg/injection, schedule: Q04DX003 (ip), vehicle: saline with Tween-80
[9] = dose: 100.0 mg/kg/injection, schedule: Q01DX001 (ip), vehicle: carboxymethylcellulose (CMC)
[10] = dose: 100.0 mg/kg/injection, schedule: Q04DX003 (ip), vehicle: Klucel (hydroxypropylcellulose) (HPC)
[11] = dose: 100.0 mg/kg/injection, schedule: Q04DX003 (ip), vehicle: saline
[12] = dose: 200.0 mg/kg/injection, schedule: Q01DX001 (ip), vehicle: carboxymethylcellulose (CMC)
[13] = dose: 200.0 mg/kg/injection, schedule: Q04DX003 (ip), vehicle: Klucel (hydroxypropylcellulose) (HPC)
[14] = dose: 200.0 mg/kg/injection, schedule: Q04DX003 (ip), vehicle: saline
[15] = dose: 400.0 mg/kg/injection, schedule: Q01DX001 (ip), vehicle: carboxymethylcellulose (CMC)
[16] = dose: 400.0 mg/kg/injection, schedule: Q04DX003 (ip), vehicle: Klucel (hydroxypropylcellulose) (HPC)
[17] = dose: 400.0 mg/kg/injection, schedule: Q04DX003 (ip), vehicle: saline
[18] = dose: 25.0 mg/kg/injection, schedule: Q01DX009 (ip), vehicle: saline
[19] = dose: 50.0 mg/kg/injection, schedule: Q01DX009 (ip), vehicle: saline
[20] = dose: 100.0 mg/kg/injection, schedule: Q01DX001 (ip), vehicle: saline
[21] = dose: 200.0 mg/kg/injection, schedule: Q01DX001 (ip), vehicle: saline
[22] = dose: 400.0 mg/kg/injection, schedule: Q01DX001 (ip), vehicle: saline
[23] = dose: 25.0 mg/kg/injection, schedule: Q04DX003 (ip), vehicle: saline
[24] = dose: 50.0 mg/kg/injection, schedule: Q04DX003 (ip), vehicle: saline

Measured: T/C

Cc1ccc(C(C)(O)c2cnc(C)n2Cc2ccccc2)cc1 (configuration not stated)
inactive: [1] 97 % of control | dose: 100.0 mg/kg/injection, schedule: Q01DX009 (ip), vehicle: saline with Tween-80 95 % of control and 113 % of control | [2] 110 % of control and 92 % of control | [3] 101 % of control | [4] 97 % of control | dose: 200.0 mg/kg/injection, schedule: Q01DX009 (ip), vehicle: saline with Tween-80 98 % of control and 102 % of control | [5] 95 % of control and 97 % of control | [6] 103 % of control | [7] 91 % of control | dose: 400.0 mg/kg/injection, schedule: Q01DX009 (ip), vehicle: saline with Tween-80 91 % of control and 92 % of control | dose: 400.0 mg/kg/injection, schedule: Q04DX002 (ip), vehicle: saline with Tween-80 103 % of control and 88 % of control | [8] 98 % of control

CCOC(=O)NC(N)=O
inactive: dose: 50.0 mg/kg/injection, schedule: Q01DX001 (ip), vehicle: carboxymethylcellulose (CMC) 92 % of control | dose: 75.0 mg/kg/injection, schedule: Q01DX009 (ip), vehicle: saline 100 % of control | [9] 97 % of control | [10] 110 % of control | [11] 107 % of control | dose: 150.0 mg/kg/injection, schedule: Q01DX009 (ip), vehicle: saline 103 % of control | [12] 95 % of control | [13] 98 % of control | [14] 98 % of control | dose: 300.0 mg/kg/injection, schedule: Q01DX009 (ip), vehicle: saline 100 % of control | [15] 92 % of control | [16] 98 % of control | [17] 102 % of control

CCOC(=O)C(Cc1ccccc1)C(=O)OCC
inactive: [3] 96 % of control | [6] 97 % of control | [8] 96 % of control

Nc1nc([Se])c2ncn(C3CC(O)C(CO)O3)c2n1 (configuration not stated)
active: dose: 12.5 mg/kg/injection, schedule: Q01DX009 (ip), vehicle: saline 196 % of control | dose: 25.0 mg/kg/injection, schedule: Q01DX005 (ip), vehicle: saline 150 % of control and 151 % of control | [18] 171 % of control | [19] 150 % of control
inactive: dose: 50.0 mg/kg/injection, schedule: Q01DX005 (ip), vehicle: saline 123 % of control

O=[N+]([O-])c1cc(S(=O)(=O)O)cc([N+](=O)[O-])c1Cl
inactive: dose: 75.0 mg/kg/injection, schedule: Q01DX001 (ip), vehicle: saline 112 % of control | dose: 150.0 mg/kg/injection, schedule: Q01DX001 (ip), vehicle: saline 109 % of control | dose: 300.0 mg/kg/injection, schedule: Q01DX001 (ip), vehicle: saline 113 % of control

Brc1cscc1C1=CCCc2ccccc21
inactive: [10] 106 % of control | [13] 98 % of control | [16] 101 % of control

O=c1oc(Cl)c(Cl)c(Cl)c1Cl
inactive: dose: 2.2 mg/kg/injection, schedule: Q01DX Z (ip), vehicle: methylcellulose (MC) 93 % of control

O=C(Nc1ccc(Cl)cc1)C(=O)Nc1ccc(Cl)cc1
inactive: dose: 100.0 mg/kg/injection, schedule: Q04DX002 (ip), vehicle: gum acacia 107 % of control | dose: 200.0 mg/kg/injection, schedule: Q04DX002 (ip), vehicle: gum acacia 89 % of control | dose: 400.0 mg/kg/injection, schedule: Q04DX002 (ip), vehicle: gum acacia 93 % of control

COC(=O)CCC(N=C=O)C(=O)OC (configuration not stated)
inactive: [20] 101 % of control | [21] 98 % of control | [22] 106 % of control

c1cc(Cc2ccc3c(c2)OCO3)c[nH]1
inactive: dose: 50.0 mg/kg/injection, schedule: Q04DX002 (ip), vehicle: saline with Tween-80 103 % of control | [2] 110 % of control | [5] 100 % of control

C/C=C\C1OC1(C)c1cc(=O)c2c(C)cc3c(c2o1)C(=O)c1c(O)c(C2CC(C)(N(C)C)C(OC(C)=O)C(C)O2)cc(C2CC(N(C)C)C(O)C(C)O2)c1C3=O (configuration not stated)
inactive: dose: 0.35 mg/kg/injection, schedule: Q01DX009 (ip), vehicle: saline with Tween-80 103 % of control | dose: 0.7 mg/kg/injection, schedule: Q01DX009 (ip), vehicle: saline with Tween-80 102 % of control | dose: 1.4 mg/kg/injection, schedule: Q01DX009 (ip), vehicle: saline with Tween-80 96 % of control | dose: 2.8 mg/kg/injection, schedule: Q01DX009 (ip), vehicle: saline with Tween-80 88 % of control

O=C(NCO)NC1NC(=O)NC1=O (configuration not stated)
inactive: [3] 101 % of control | [6] 101 % of control | [8] 108 % of control

CC(=O)OCCC/C(=C\c1ccc(F)cc1)[N+](=O)[O-]
inactive: dose: 100.0 mg/kg/injection, schedule: Q01DX001 (ip), vehicle: other 111 % of control

c1ccc(C2OC3(CCCCC3)C[N+]23CCCC3)cc1 (configuration not stated)
inactive: dose: 25.0 mg/kg/injection, schedule: Q01DX009 (ip), vehicle: saline with Tween-80 109 % of control | dose: 50.0 mg/kg/injection, schedule: Q01DX009 (ip), vehicle: saline with Tween-80 107 % of control | [3] 97 % of control

CCCCC1=C(C)C(=O)OC1=O
inactive: [3] 95 % of control | [6] 95 % of control | [8] 103 % of control

COP(=O)(OC)C(OC(=O)C(C)(C)C)=C(C)C
inactive: [3] 98 % of control | [6] 110 % of control | [8] 93 % of control

CC[N+](C)(C)CCCOC(=O)C1C2CC3OC(=O)C1C3C2 (configuration not stated)
inactive: [23] 101 % of control | [24] 105 % of control | [11] 103 % of control and 108 % of control | [14] 97 % of control

C=CCC(CCCCCCCCCCCCC)C(=O)O (configuration not stated)
inactive: [1] 96 % of control | [4] 105 % of control | [7] 101 % of control

COc1cc(C=O)ccc1OC(=O)Nc1ccc([N+](=O)[O-])cc1Cl
inactive: dose: 100.0 mg/kg/injection, schedule: Q01DX009 (ip), vehicle: Klucel (hydroxypropylcellulose) (HPC) 98 % of control | [10] 103 % of control | dose: 200.0 mg/kg/injection, schedule: Q01DX009 (ip), vehicle: Klucel (hydroxypropylcellulose) (HPC) 98 % of control | [13] 97 % of control | dose: 400.0 mg/kg/injection, schedule: Q01DX009 (ip), vehicle: Klucel (hydroxypropylcellulose) (HPC) 98 % of control | [16] 105 % of control

C#CC[N+](CC#C)(CC#C)CC#C
inactive: [18] 96 % of control | [19] 102 % of control | dose: 100.0 mg/kg/injection, schedule: Q01DX009 (ip), vehicle: saline 104 % of control

CNCC(O)c1ccccc1 (configuration not stated)
inactive: [20] 96 % of control | [11] 94 % of control | [21] 97 % of control | [14] 96 % of control | [22] 92 % of control | [17] 100 % of control

NNC(=O)C1CCN1C(c1ccccc1)c1ccccc1 (configuration not stated)
inactive: dose: 25.0 mg/kg/injection, schedule: Q01DX001 (ip), vehicle: saline with Tween-80 101 % of control | dose: 50.0 mg/kg/injection, schedule: Q01DX001 (ip), vehicle: saline with Tween-80 101 % of control | [1] 97 % of control

Nc1ccc(S(=O)(=O)c2cc(CC(N)C(=O)O)cc(O)c2O)cc1 (configuration not stated)
inactive: dose: 87.5 mg/kg/injection, schedule: Q01DX009 (ip), vehicle: saline 98 % of control | dose: 175.0 mg/kg/injection, schedule: Q01DX009 (ip), vehicle: saline 96 % of control | dose: 350.0 mg/kg/injection, schedule: Q01DX009 (ip), vehicle: saline 86 % of control

Cc1ccnc(NS(=O)(=O)c2ccc(N=Nc3c(N)[nH]c(=S)[nH]c3=O)cc2)n1
inactive: [9] 97 % of control | [12] 95 % of control | [15] 95 % of control

C(=N/N(Cc1ccccc1)Cc1ccccc1)/c1ccccc1
inactive: [20] 94 % of control | [21] 103 % of control | [22] 101 % of control

CNc1c([N+](=O)[O-])ncn1C
inactive: dose: 12.5 mg/kg/injection, schedule: Q04DX003 (ip), vehicle: saline 98 % of control | [23] 94 % of control | [24] 91 % of control | [11] 97 % of control

CC(=O)NN1C(=O)c2ccccc2C1=O
inactive: dose: 50.0 mg/kg/injection, schedule: Q04DX003 (ip), vehicle: Klucel (hydroxypropylcellulose) (HPC) 97 % of control | [10] 104 % of control | [13] 101 % of control
